Reference: patent US12180187B2, “1-phenyl-5-azinylpyrazolyl-3-oxyalkyl acids and their use for controlling unwanted plant growth” (BAYER AKTIENGESELLSCHAFT, priority 2019, dated 2024)
Values joined by “and” are separate entries in the source; they are usually repeats but may differ in a detail not shown here. Identical values can stand only once.

Legend:
[1] = tested on: ALOMY; test: Post-emergence action against ALOMY, 320 g/ha; type: in vivo, Alopecurus myosuroides; conditions: dosage 320 g/ha, visual rating about 3 weeks after treatment vs untreated controls (100% = plants died)
Procedure, shortened: (§1)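 Weeds were sown in sandy loam, grown in a greenhouse and sprayed at the one-leaf stage, 2 to 3 weeks after sowing, with WP or EC formulations as aqueous suspension or emulsion plus 0.5% additive at 600 l/ha water. Activity was rated visually after about 3 weeks against untreated controls (100% = plants dead, 0% = like control).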

[2] = tested on: VERPE; test: Post-emergence action against VERPE, 1.28 kg/ha; type: in vivo, Veronica persica; conditions: dosage 1280 g/ha, visual rating about 3 weeks after treatment vs untreated controls (100% = plants died); for pest or weed control at 1280 g/ha: Veronica persica, 504 h
Procedure, shortened: (§2)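 Percent activity was scored visually ~3 wk post-spray relative to untreated plants. Treatment was post-emergence at the one-leaf stage using WP/EC in water with 0.5% additive (600 L/ha).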

[3] = tested on: SETVI; test: Post-emergence action at 320 g/ha against SETVI; type: in vivo, Setaria viridis; conditions: visual rating about 3 weeks after treatment vs untreated controls
Procedure, shortened: as §1

[4] = tested on: VERPE; test: Pre-emergence action at 320 g/ha against VERPE; type: in vivo, Veronica persica; conditions: visual scoring after about 3 weeks vs untreated controls; for pest or weed control at 320 g/ha: Veronica persica, 504 h
Procedure, shortened: (§3)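 Visual % scoring at about 3 weeks post-treatment against untreated pots (0% = like control, 100% = dead), greenhouse-grown. Compounds applied at 320 g/ha as aqueous WP/EC suspension or emulsion plus 0.5% additive, 600 l/ha water, onto covering soil of freshly sown pots before emergence.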

[5] = tested on: LOLRI; test: Pre-emergence action against LOLRI, 1280 g/ha; type: in vivo, Lolium rigidum; conditions: visual scoring after about 3 weeks vs untreated controls, 100% = plants have died, 0% = like control plants; for pest or weed control at 1280 g/ha: Lolium rigidum, 504 h
Procedure, shortened: (§4)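 Percent herbicidal effect, judged by eye relative to untreated pots around 3 weeks after soil-surface treatment. Application: formulated compound in water, 600 L/ha, 0.5% additive, on soil over sown seeds; greenhouse.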

[6] = tested on: ABUTH; test: Post-emergence action at 320 g/ha against ABUTH; type: in vivo, Abutilon theophrasti; conditions: visual rating about 3 weeks after treatment vs untreated controls
Procedure, shortened: as §1

[7] = tested on: LOLRI; test: Pre-emergence action at 320 g/ha against LOLRI; type: in vivo, Lolium rigidum; conditions: visual scoring after about 3 weeks vs untreated controls; for pest or weed control at 320 g/ha: Lolium rigidum, 504 h
Procedure, shortened: as §3

[8] = tested on: DIGSA; test: Post-emergence action at 320 g/ha against DIGSA; type: in vivo, Digitaria sanguinalis; conditions: dosage 320 g/ha, visual rating about 3 weeks after treatment vs untreated controls (100% = plants died); for pest or weed control at 320 g/ha: Digitaria sanguinalis, 504 h
Procedure, shortened: as §1

[9] = tested on: SETVI; test: Post-emergence action against SETVI, 1.28 kg/ha; type: in vivo, Setaria viridis; conditions: dosage 1280 g/ha, visual rating about 3 weeks after treatment vs untreated controls
Procedure, shortened: as §2

[10] = tested on: ECHCG; test: Post-emergence action against ECHCG, 1.28 kg/ha; type: in vivo, Echinochloa crus-galli; conditions: dosage 1280 g/ha, visual rating about 3 weeks after treatment vs untreated controls; for pest or weed control at 1280 g/ha: Echinochloa crus-galli, 504 h
Procedure, shortened: as §2

[11] = tested on: VIOTR; test: Post-emergence action at 320 g/ha against VIOTR; type: in vivo, Viola tricolor; conditions: visual rating about 3 weeks after treatment vs untreated controls; for pest or weed control at 320 g/ha: Viola tricolor, 504 h
Procedure, shortened: as §1

[12] = tested on: DIGSA; test: Post-emergence action against DIGSA, 1.28 kg/ha; type: in vivo, Digitaria sanguinalis; conditions: dosage 1280 g/ha, visual rating about 3 weeks after treatment vs untreated controls
Procedure, shortened: as §2

[13] = tested on: ALOMY; test: Post-emergence action against ALOMY, 1.28 kg/ha; type: in vivo, Alopecurus myosuroides; conditions: dosage 1280 g/ha, visual rating about 3 weeks after treatment vs untreated controls
Procedure, shortened: as §2

[14] = tested on: MATIN; test: Post-emergence action against MATIN, 1.28 kg/ha; type: in vivo, Tripleurospermum inodorum (Matricaria inodora); conditions: dosage 1280 g/ha, visual rating about 3 weeks after treatment vs untreated controls (100% = plants died)
Procedure, shortened: as §2

[15] = tested on: LOLRI; test: Post-emergence action against LOLRI, 1.28 kg/ha; type: in vivo, Lolium rigidum; conditions: dosage 1280 g/ha, visual rating about 3 weeks after treatment vs untreated controls
Procedure, shortened: as §2

[16] = tested on: ABUTH; test: Pre-emergence action against ABUTH, 1280 g/ha; type: in vivo, Abutilon theophrasti; conditions: scored visually after about 3 weeks vs untreated controls (100% = plants have died)
Procedure, shortened: as §4

| SMILES | Post-emergence action against ALOMY [1] [%] | pest or weed control at 1280 g/ha [2] [%] | Post-emergence action against SETVI in % [3] | pest or weed control at 320 g/ha [4] [%] | pest or weed control at 1280 g/ha [5] [%] | Post-emergence action against ABUTH in % [6] [%] | pest or weed control at 320 g/ha [7] [%] | pest or weed control at 320 g/ha [8] [%] | Post-emergence action against SETVI [9] | Post-emergence action against ECHCG [10] [%] | Post-emergence action against VIOTR in % [11] [%] | Post-emergence action against VERPE [2] [%] | Pre-emergence action against VERPE in % [4] [%] | Pre-emergence action against LOLRI [5] [%] | Post-emergence action against DIGSA [12] [%] | Post-emergence action against ALOMY [13] [%] | Pre-emergence action against LOLRI in % [7] [%] | Post-emergence action against MATIN [14] | Post-emergence action against LOLRI [15] [%] | pest or weed control at 1280 g/ha [10] [%] | other results |
| --- | --- | --- | --- | --- | --- | --- | --- | --- | --- | --- | --- | --- | --- | --- | --- | --- | --- | --- | --- | --- | --- |
| C=CCNC(=O)COc1nn(-c2ccccc2F)c(-c2ccc(F)nc2)c1Br [Example X-001, N-Allyl-2-{[4-bromo-1-(2-fluorophenyl)-5-(6-fluoropyridin-3-yl)-1H-pyrazol-3-yl]oxy}acetamide] | 90 | 100 | 90% | 80 | 100 | 80 | 100 | 80 |  |  |  |  |  |  |  |  |  |  |  |  |  |
| COC(=O)CNC(=O)COc1nn(-c2ccccc2F)c(-c2ccc(F)nc2)c1Br [Example X-002] | 100 |  | 90% |  |  | 90 |  |  | 100% | 90 | 90 | 90 | 100 | 100 | 100 | 90 | 100 |  |  |  | Post-emergence action at 320 g/ha against DIGSA in % [8]: 100% |
| CS(=O)(=O)NC(=O)COc1nn(-c2ccccc2F)c(-c2ccc(F)nc2)c1Br [Example X-004] | 100 |  | 90% |  |  | 80 |  |  | 90% | 100 | 80 | 100 | 100 | 100 | 100 | 100 | 100 | 90% |  |  | Post-emergence action at 320 g/ha against DIGSA in % [8]: 90% |
| COC(=O)COc1nn(-c2ccccc2F)c(-c2cncnc2)c1Br [VI-004, Methyl {[4-bromo-1-(2-fluorophenyl)-5-(pyrimidin-5-yl)-1H-pyrazol-3-yl]oxy}acetate] |  | 90 | 80% | 100 | 100 | 80 | 90 | 90 | 90% |  |  |  |  |  |  |  |  | 100% | 100 | 90 | pest or weed control at 320 g/ha [11]: 80%; Pre-emergence action against ABUTH [16]: 90% |
| O=C(O)COc1nn(-c2ccccc2F)c(-c2cncnc2)c1Br [VI-007, {[4-Bromo-1-(2-fluorophenyl)-5-(pyrimidin-5-yl)-1H-pyrazol-3-yl]oxy}acetic Acid] |  | 90 |  | 100 | 100 | 90 | 100 | 80 | 90% |  |  |  |  |  | 100 | 90 |  | 90% |  | 100 | pest or weed control at 320 g/ha [11]: 90%; Pre-emergence action against ABUTH [16]: 90% |
| O=C(O)COc1nn(-c2ccccc2F)c(-c2ccc(F)nc2)c1Br [VII-003, {[4-Bromo-1-(2-fluorophenyl)-5-(6-fluoropyridin-3-yl)-1H-pyrazol-3-yl]oxy}acetic acid] | 80 | 90 |  | 100 | 100 | 80 | 100 | 90 | 90% |  |  |  |  |  | 100 | 90 |  | 100% | 100 | 90 | pest or weed control at 320 g/ha [11]: 90% |
| CCOC(=O)COc1nn(-c2ccccc2F)c(-c2ccc(F)nc2)c1Br [VII-012, Ethyl {[4-bromo-1-(2-fluorophenyl)-5-(6-fluoropyridin-3-yl)-1H-pyrazol-3-yl]oxy}acetate] | 90 | 90 | 100% and 80% | 100 | 100 | 80 | 90 | 80 | 100% and 90% |  |  |  |  |  | 100 | 100 |  | 100% and 90% | 100 | 100 | pest or weed control at 320 g/ha [11]: 90% |
| CCOC(=O)COc1nn(-c2ccc(F)cc2F)c(-c2ccc(F)nc2)c1Cl [VII-016] | 90 |  | 80% |  |  | 90 |  |  | 90% | 90 | 80 | 90 | 90 | 100 |  |  | 100 | 100% | 90 |  | Pre-emergence action against ABUTH [16]: 100% |
| COC(=O)COc1nn(-c2ccccc2)c(-c2ccc(F)nc2)c1Br [VII-018] | 90 |  | 80% |  |  | 80 |  |  | 100% | 90 | 90 | 90 | 100 | 100 | 100 | 100 | 100 | 90% | 90 |  | Pre-emergence action against ABUTH [16]: 90% |
| COC(=O)C(C)Oc1nn(-c2ccccc2)c(-c2ccc(F)nc2)c1Cl (stereo not drawn) [VII-023, Methyl 2-{[4-chloro-5-(6-fluoropyridin-3-yl)-1-phenyl-1H-pyrazol-3-yl]oxy}propanoate] | 90 | 100 |  | 80 | 100 | 90 | 100 | 90 |  |  |  |  |  |  | 90 |  |  | 90% | 100 | 90 | pest or weed control at 320 g/ha [11]: 80% |
| COC(=O)C(C)Oc1nn(-c2ccccc2)c(-c2cccnc2)c1Cl (stereo not drawn) [VII-032] | 90 |  | 80% |  |  | 80 |  |  | 90% | 100 | 90 | 100 | 100 | 100 | 90 |  | 100 | 90% | 100 |  | Post-emergence action at 320 g/ha against DIGSA in % [8]: 90% |
